PubChem BioAssay AID248 (DTP/NCI, 2004)
Values joined by “and” are separate entries in the source; they are usually repeats but may differ in a detail not shown here. Identical values can stand only once. Toxic doses and inconclusive results are not listed. Cut-off read from the data, not from the text of the source: active = T/C of 150% or more; inactive = T/C below 125%.

System: L1210 leukemia ip in BDF1 mice, survival T/C
Experiment: NCI In Vivo Anticancer Drug Screen. Data for tumor model L1210 Leukemia (intraperitoneal) in B6D2F1 (BDF1) mice
Conditions: endpoint: mean survival time, higher = longer survival
Procedure, shortened: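 Mice bearing the transplanted tumor received compound or vehicle. Survival of the treated group was divided by that of the vehicle-treated control group to give the ratio.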

[1] = dose: 100.0 mg/kg/injection, schedule: Q01DX001 (ip), vehicle: saline
[2] = dose: 100.0 mg/kg/injection, schedule: Q01DX009 (ip), vehicle: saline
[3] = dose: 200.0 mg/kg/injection, schedule: Q01DX001 (ip), vehicle: saline
[4] = dose: 200.0 mg/kg/injection, schedule: Q01DX009 (ip), vehicle: saline
[5] = dose: 400.0 mg/kg/injection, schedule: Q01DX001 (ip), vehicle: saline
[6] = dose: 400.0 mg/kg/injection, schedule: Q01DX009 (ip), vehicle: saline
[7] = dose: 5.0 mg/kg/injection, schedule: Q01DX001 (ip), vehicle: saline
[8] = dose: 10.0 mg/kg/injection, schedule: Q01DX001 (ip), vehicle: saline
[9] = dose: 20.0 mg/kg/injection, schedule: Q01DX001 (ip), vehicle: saline
[10] = dose: 100.0 mg/kg/injection, schedule: Q01DX009 (ip), vehicle: saline with Tween-80
[11] = dose: 200.0 mg/kg/injection, schedule: Q01DX009 (ip), vehicle: saline with Tween-80
[12] = dose: 400.0 mg/kg/injection, schedule: Q01DX009 (ip), vehicle: saline with Tween-80
[13] = dose: 100.0 mg/kg/injection, schedule: Q04DX003 (ip), vehicle: Klucel (hydroxypropylcellulose) (HPC)
[14] = dose: 200.0 mg/kg/injection, schedule: Q04DX003 (ip), vehicle: Klucel (hydroxypropylcellulose) (HPC)
[15] = dose: 400.0 mg/kg/injection, schedule: Q04DX003 (ip), vehicle: Klucel (hydroxypropylcellulose) (HPC)
[16] = dose: 50.0 mg/kg/injection, schedule: Q04DX003 (ip), vehicle: saline with Tween-80
[17] = dose: 100.0 mg/kg/injection, schedule: Q04DX003 (ip), vehicle: saline with Tween-80
[18] = dose: 200.0 mg/kg/injection, schedule: Q04DX003 (ip), vehicle: saline with Tween-80
[19] = dose: 400.0 mg/kg/injection, schedule: Q04DX003 (ip), vehicle: saline with Tween-80
[20] = dose: 100.0 mg/kg/injection, schedule: Q01DX009 (ip), vehicle: Klucel (hydroxypropylcellulose) (HPC)
[21] = dose: 200.0 mg/kg/injection, schedule: Q01DX009 (ip), vehicle: Klucel (hydroxypropylcellulose) (HPC)

Measured: T/C

CCCCC(=O)N1CCCCC1
inactive: dose: 50.0 mg/kg/injection, schedule: Q01DX001 (ip), vehicle: carboxymethylcellulose (CMC) 104 % of control | dose: 50.0 mg/kg/injection, schedule: Q01DX009 (ip), vehicle: carboxymethylcellulose (CMC) 94 % of control and 97 % of control | dose: 50.0 mg/kg/injection, schedule: Q04DX003 (ip), vehicle: carboxymethylcellulose (CMC) 102 % of control | dose: 100.0 mg/kg/injection, schedule: Q01DX001 (ip), vehicle: carboxymethylcellulose (CMC) 106 % of control | dose: 100.0 mg/kg/injection, schedule: Q01DX009 (ip), vehicle: carboxymethylcellulose (CMC) 94 % of control and 102 % of control | dose: 100.0 mg/kg/injection, schedule: Q04DX002 (ip), vehicle: carboxymethylcellulose (CMC) 98 % of control | dose: 100.0 mg/kg/injection, schedule: Q04DX003 (ip), vehicle: carboxymethylcellulose (CMC) 96 % of control | dose: 200.0 mg/kg/injection, schedule: Q01DX001 (ip), vehicle: carboxymethylcellulose (CMC) 101 % of control | dose: 200.0 mg/kg/injection, schedule: Q01DX009 (ip), vehicle: carboxymethylcellulose (CMC) 96 % of control and 87 % of control | dose: 200.0 mg/kg/injection, schedule: Q04DX002 (ip), vehicle: carboxymethylcellulose (CMC) 91 % of control | dose: 200.0 mg/kg/injection, schedule: Q04DX003 (ip), vehicle: carboxymethylcellulose (CMC) 97 % of control

CC1CCCC/C1=N/O (centres undefined)
inactive: [1] 100 % of control | [2] 97 % of control | [3] 92 % of control | [4] 105 % of control | [5] 91 % of control | [6] 97 % of control

CCC[CH2][Sn]([CH2]CCC)=[N]S(=O)(=O)c1ccc(Cl)c(C)c1
inactive: [7] 98 % of control | [8] 98 % of control | [9] 109 % of control

CN(C)c1ccc(N=C(C#N)C#N)cc1
inactive: dose: 75.0 mg/kg/injection, schedule: Q01DX001 (ip), vehicle: other 89 % of control | dose: 150.0 mg/kg/injection, schedule: Q01DX001 (ip), vehicle: other 95 % of control

CC(=O)OCCOc1ccccc1Cl
inactive: dose: 100.0 mg/kg/injection, schedule: Q04DX002 (ip), vehicle: saline with Tween-80 118 % of control | dose: 200.0 mg/kg/injection, schedule: Q04DX002 (ip), vehicle: saline with Tween-80 108 % of control | dose: 400.0 mg/kg/injection, schedule: Q04DX002 (ip), vehicle: saline with Tween-80 114 % of control

Cc1ccc(S(=O)(=O)SC(Cl)(Cl)Cl)cc1
inactive: dose: 50.0 mg/kg/injection, schedule: Q01DX009 (ip), vehicle: saline 105 % of control

O=C(O)c1cc(Cl)cc2c1-c1ccc(Cl)cc1C2Br (centres undefined)
inactive: dose: 18.7 mg/kg/injection, schedule: Q01DX009 (ip), vehicle: carboxymethylcellulose (CMC) 96 % of control | dose: 75.0 mg/kg/injection, schedule: Q01DX001 (ip), vehicle: carboxymethylcellulose (CMC) 98 % of control | dose: 150.0 mg/kg/injection, schedule: Q01DX001 (ip), vehicle: carboxymethylcellulose (CMC) 91 % of control

O=S(=O)(Cl)c1cccc2cc3ccccc3cc12
inactive: [1] 92 % of control | [10] 107 % of control | [3] 100 % of control | [11] 102 % of control | [5] 98 % of control | [12] 103 % of control

Brc1cc(Br)cc(Br)c1
inactive: [13] 92 % of control and 98 % of control | [14] 101 % of control and 105 % of control | [15] 98 % of control and 103 % of control

CCCN(CCC)CCC(=O)O
inactive: [2] 100 % of control | dose: 100.0 mg/kg/injection, schedule: Q04DX003 (ip), vehicle: saline 97 % of control | [4] 96 % of control | dose: 200.0 mg/kg/injection, schedule: Q04DX003 (ip), vehicle: saline 108 % of control | [6] 102 % of control | dose: 400.0 mg/kg/injection, schedule: Q04DX003 (ip), vehicle: saline 101 % of control

CC1(C)OC(=O)C2C3CCC(C2C(=O)O)C31 (centres undefined)
inactive: [13] 100 % of control | [14] 96 % of control | [15] 100 % of control

Cc1cc(=O)c2cc(Cc3ccc(N)cc3)ccc2[nH]1
inactive: [1] 101 % of control | [3] 108 % of control

Cc1cc(C)c(NC(=O)Cc2ccccc2)cc1C
inactive: dose: 100.0 mg/kg/injection, schedule: Q04DX002 (ip), vehicle: Klucel (hydroxypropylcellulose) (HPC) 96 % of control | dose: 200.0 mg/kg/injection, schedule: Q04DX002 (ip), vehicle: Klucel (hydroxypropylcellulose) (HPC) 96 % of control | dose: 400.0 mg/kg/injection, schedule: Q04DX002 (ip), vehicle: Klucel (hydroxypropylcellulose) (HPC) 89 % of control

CCC(CO)NC(=O)Nc1cccc2ccccc12 (centres undefined)
inactive: [16] 105 % of control | [10] 102 % of control | [17] 105 % of control | [11] 96 % of control | [18] 100 % of control | [12] 96 % of control | [19] 94 % of control

O=[N+]([O-])c1c(Cl)ccc2c(Cl)ccnc12
inactive: dose: 100.0 mg/kg/injection, schedule: Q04DX003 (ip), vehicle: gum acacia 111 % of control | dose: 200.0 mg/kg/injection, schedule: Q04DX003 (ip), vehicle: gum acacia 91 % of control

O=C1OCN(c2ccccc2)/C1=C/c1ccccc1
inactive: [1] 89 % of control | [3] 94 % of control | [5] 93 % of control

O=C(O)/C=C(/Cl)c1ccccc1
inactive: [17] 102 % of control | [18] 100 % of control | [19] 108 % of control

CSc1ncnc2[nH]ncc12
inactive: dose: 25.0 mg/kg/injection, schedule: Q01DX009 (ip), vehicle: saline with Tween-80 108 % of control | dose: 25.0 mg/kg/injection, schedule: Q04DX003 (ip), vehicle: saline with Tween-80 105 % of control | dose: 50.0 mg/kg/injection, schedule: Q01DX009 (ip), vehicle: saline with Tween-80 102 % of control | [16] 103 % of control | [17] 96 % of control and 106 % of control

CC(O)(/C=C\c1ccccc1)c1ccccc1 (centres undefined)
inactive: [10] 104 % of control | [17] 103 % of control | [11] 102 % of control | [18] 101 % of control | [12] 93 % of control | [19] 108 % of control

COc1ccnc(SCc2ccccc2)n1
inactive: [20] 97 % of control | [13] 100 % of control | [21] 95 % of control | [14] 100 % of control | [15] 102 % of control

O=[N+]([O-])c1ccc2nc(=S)[nH]n2c1
inactive: dose: 100.0 mg/kg/injection, schedule: Q01DX001 (ip), vehicle: acetone 97 % of control | dose: 200.0 mg/kg/injection, schedule: Q01DX001 (ip), vehicle: acetone 93 % of control | dose: 400.0 mg/kg/injection, schedule: Q01DX001 (ip), vehicle: acetone 98 % of control

CCCCCCCC(=O)N1CCCC1C(=O)NCCCCC(=O)O (centres undefined)
inactive: dose: 25.0 mg/kg/injection, schedule: Q01DX001 (ip), vehicle: saline 95 % of control | dose: 50.0 mg/kg/injection, schedule: Q01DX001 (ip), vehicle: saline 98 % of control | [1] 95 % of control

CC(=O)c1ccccc1I
inactive: [20] 94 % of control | [13] 100 % of control | [21] 97 % of control | [14] 94 % of control | dose: 400.0 mg/kg/injection, schedule: Q01DX009 (ip), vehicle: Klucel (hydroxypropylcellulose) (HPC) 103 % of control | [15] 95 % of control

[Cu+2].[NH-]C(CC(=O)O)C(=O)O.[NH-]C(CC(=O)O)C(=O)O (centres undefined)
inactive: [7] 96 % of control | [8] 96 % of control | [9] 91 % of control | dose: 40.0 mg/kg/injection, schedule: Q01DX001 (ip), vehicle: saline 96 % of control
